From article PMC7913148, “Anti-Cholinesterase Combination Drug Therapy as a Potential Treatment for Alzheimer’s Disease” (Brain Sciences, 2021)
pIC50: −log10 of the molar value. Structures can show the parent of a compound that is named as a salt.

Legend:
[1] = test system: SH-SY5Y neuroblastoma cells; experiment: MTT cytotoxicity assay; assay type: cell-based, human; conditions: SH-SY5Y, MTT, 48 h; significant change from control
Procedure: (§1) A MTT assay was used to assess the cytotoxicity of either the individual drugs or dual-drug combinations using the SH-SY5Y neuroblastoma cell line. SH-SY5Y cells were seeded in 96-well plates (passage #15) at a cell density of 3 × 10^4 cells/well in DMEM containing 10% FBS. […] Plates were incubated for 4 h at 37 °C, before removal of the media and replacement with 1:1 (v/v) isopropanol:DMSO. […] Cell viability of cells treated with drugs was quantified by comparison to untreated control cells, set at 100% viability.
(§2) Values generated for IC50 and for the dual-drug CI were determined using CompuSyn software. […] For cell viability assays, a one-way ANOVA was performed to determine significant changes after treatments compared to control cell viability, set at 100%.

MTT cytotoxicity assay = assay type: cell-based, human; conditions: human, SH-SY5Y neuroblastoma cells; read-out: Cell Cytotoxicity Log IC50 (converted)
Procedure: as §1, §2

[2] = compared to tacrine or berberine; cited from earlier work
[3] = molecular target: T1, Torpedo californica acetylcholinesterase (tcAChE) (Tetronarce californica, UniProt P04058); experiment: biochemical; conditions: individual drug; Torpedo californica AChE (tc); read-out: Acetycholinesterase Inhibition (IC50)
T1 construct: purchased Sigma-Aldrich (Poole, UK)
T1 sequence (P04058 22-586): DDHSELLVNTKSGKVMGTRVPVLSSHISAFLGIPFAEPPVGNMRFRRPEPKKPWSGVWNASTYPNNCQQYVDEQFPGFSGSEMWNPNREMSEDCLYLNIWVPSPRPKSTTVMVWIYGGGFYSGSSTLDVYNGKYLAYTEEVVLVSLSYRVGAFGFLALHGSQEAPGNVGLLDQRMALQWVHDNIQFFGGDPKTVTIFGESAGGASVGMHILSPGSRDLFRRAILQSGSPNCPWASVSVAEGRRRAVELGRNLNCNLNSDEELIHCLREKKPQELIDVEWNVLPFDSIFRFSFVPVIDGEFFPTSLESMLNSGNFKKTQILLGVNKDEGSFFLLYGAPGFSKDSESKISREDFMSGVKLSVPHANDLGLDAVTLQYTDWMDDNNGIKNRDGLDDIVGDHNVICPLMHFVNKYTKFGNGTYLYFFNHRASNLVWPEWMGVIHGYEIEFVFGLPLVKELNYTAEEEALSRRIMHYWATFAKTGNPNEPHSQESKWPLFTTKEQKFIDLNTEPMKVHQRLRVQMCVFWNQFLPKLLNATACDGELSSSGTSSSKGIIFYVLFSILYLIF
Procedure: A microtiter plate version of the Ellman’s assay was used to determine the activity of human and Torpedo californica acetylcholinesterase enzymes [27]. Assays were undertaken in the presence of either individual drugs or two-drug combinations. Each assay data point within a 96-well plate contained 40 µL of 0.01 M DTNB, 46 µL of 0.1 M (pH 8.0) phosphate buffer, 2 µL of 0.075 M ATCI substrate, and 10 µL of drug or dual-drug combination. […] Enzymatic cleavage of the ATCI substrate was initiated by addition of 2 µL of 0.5 U/mL AChE enzyme. […] Under these assay conditions, a final color change was reached (results not included) such that an end-point assay measurement was taken [29].
These scoping experiments enabled us to quantify an approximate IC50 for subsequent dose-response experiments. […] These concentrations were also used for dual-drug combination experiments. Experiments undertaken in the absence of inhibitor were designated as 100% enzymatic activity. Assays were performed in duplicates from which a mean was calculated.
Percentage inhibition of AChE from in vitro assays in response to application of individual or dual-drug ChEIs were calculated using CompuSyn software (http://www.combosyn.com/index.html). […]

| SMILES | concentration needed to reduce cell viability (induce toxicity) [1] | IC50 at 48 h (MTT cytotoxicity assay) | oral bioavailability [2] | pIC50 [3] |
| --- | --- | --- | --- | --- |
| Nc1c2c(nc3ccccc13)CCCC2 [Tac, tacrine hydrochloride] | at least 10 µM | 339 mg/L | – | – |
| COc1ccc2c3c1O[C@H]1C[C@@H](O)C=C[C@@]31CCN(C)C2 [Gal, galantamine hydrobromide] | ≥ 100 µM | 12600 mg/L | relatively high | – |
| COc1ccc2cc3[n+](cc2c1OC)CCc1cc2c(cc1-3)OCO2 [Ber, berberine hydrochloride] | ≥ 1 µM | 955 mg/L | – | 5.49 |
